Reference: patent EP3782997A1, “FUSED PYRIMIDINE COMPOUNDS AND PHARMACEUTICAL COMPOSITIONS THEREOF FOR THE TREATMENT OF FIBROTIC DISEASES” (Galapagos N.V., priority 2019, dated 2021)
pIC50: −log10 of the molar value.

Target: hENPP2 (Homo sapiens, UniProt Q13822)
Test: Human ENPP2 (hENPP2) biochemical assay using LPC as substrate
Settings: 150 µM LPC (palmitoyl 16:0), 37°C for 30 min
How it was run: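 Enzyme at 1 or 3 µg/mL final in Tris-HCl pH 8.5, NaCl, KCl, CaCl2, fatty-acid-free BSA; reaction started with 150 µM LPC 16:0 (as added), 30 min at 37°C. Released choline developed with choline oxidase/peroxidase/TOOS/4-aminoantipyrine plus EGTA stop, read at 555 nm after 30 min; 1/3 dilutions from 50 µM give IC50.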

pIC50 | Structure (SMILES)
7.00 to 11.00 | COc1cc2[nH]nnc2cc1C(=O)N1CC[C@H](N2Cc3cnc(Nc4cc(C)cc(C)c4)nc3C2)C[C@H]1C [compound 120, [(2R,4S)-4-[2-(3,5-dimethylanilino)-5,7-dihydropyrrolo[3,4-d]pyrimidin-6-yl]-2-methyl-1-piperidyl]-(6-methoxy-1H-benzotriazol-5-yl)methanone]
< 6.00 | Cc1cc(C)cc(Nc2ncc3c(n2)CN([C@H]2CCN(C(=O)c4cccc(-c5nnn[nH]5)c4)[C@@H](C)C2)C3)c1 [compound 123, [(2S,4S)-4-[2-(3,5-dimethylanilino)-5,7-dihydropyrrolo[3,4-d]pyrimidin-6-yl]-2-methyl-1-piperidyl]-[3-(1H-tetrazol-5-yl)phenyl]methanone]
7.00 to 11.00 | COc1cc(Nc2ncc3c(n2)CN([C@@H]2CCN(C(=O)c4ccc5[nH]nnc5c4)[C@H](C)C2)C3)ccc1F [compound 126, 1H-benzotriazol-5-yl-[(2R,4R)-4-[2-(4-fluoro-3-methoxy-anilino)-5,7-dihydropyrrolo[3,4-d]pyrimidin-6-yl]-2-methyl-1-piperidyl]methanone]
7.00 to 11.00 | COc1cc(Nc2ncc3c(n2)CN([C@@H]2CCN(C(=O)c4ccc5[nH]nnc5c4)[C@H](C)C2)C3)cc(C(F)(F)F)c1 [compound 127, 1H-benzotriazol-5-yl-[(2R,4R)-4-[2-[3-methoxy-5-(trifluoromethyl)anilino]-5,7-dihydropyrrolo[3,4-d]pyrimidin-6-yl]-2-methyl-1-piperidyl]methanone]
7.00 to 11.00 | C[C@@H]1C[C@@H](N2Cc3cnc(Nc4cc(C#N)cc(C(F)(F)F)c4)nc3C2)CCN1C(=O)c1ccc2[nH]nnc2c1 [compound 128, 3-[[6-[(2R,4S)-1-(1H-benzotriazole-5-carbonyl)-2-methyl-4-piperidyl]-5,7-dihydropyrrolo[3,4-d]pyrimidin-2-yl]amino]-5-(trifluoromethyl)benzonitrile]
7.00 to 11.00 | C[C@@H]1C[C@H](N2Cc3cnc(Nc4cc(C(N)=O)cc(C(F)(F)F)c4)nc3C2)CCN1C(=O)c1ccc2[nH]nnc2c1 [compound 129, 3-[[6-[(2R,4R)-1-(1H-benzotriazole-5-carbonyl)-2-methyl-4-piperidyl]-5,7-dihydropyrrolo[3,4-d]pyrimidin-2-yl]amino]-5-(trifluoromethyl)benzamide]
7.00 to 11.00 | Cc1ccc(Nc2ncc3c(n2)CN([C@@H]2CCN(C(=O)c4ccc5[nH]nnc5c4)[C@H](C)C2)C3)cc1 [compound 134, 1H-benzotriazol-5-yl-[(2R,4R)-2-methyl-4-[2-(4-methylanilino)-5,7-dihydropyrrolo[3,4-d]pyrimidin-6-yl]-1-piperidyl]methanone]
7.00 to 11.00 | C[C@@H]1C[C@H](N2Cc3cnc(Nc4ccc(Cl)cc4)nc3C2)CCN1C(=O)c1ccc2[nH]nnc2c1 [compound 135, 1H-benzotriazol-5-yl-[(2R,4R)-4-[2-(4-chloroanilino)-5,7-dihydropyrrolo[3,4-d]pyrimidin-6-yl]-2-methyl-1-piperidyl]methanone]
6.30 to 7.00 | Cc1cc(C)cc(Nc2ncc3c(n2)CN(C2CCN(C(=O)c4cc5nn[nH]c5cn4)CC2)C3)c1 [compound 140, [4-[2-(3,5-dimethylanilino)-5,7-dihydropyrrolo[3,4-d]pyrimidin-6-yl]-1-piperidyl]-(3H-triazolo[4,5-c]pyridin-6-yl)methanone]
7.00 to 11.00 | CCOc1cc2[nH]nnc2cc1C(=O)N1CCC(N2Cc3cnc(Nc4cc(C)cc(C)c4)nc3C2)CC1 [compound 141, [4-[2-(3,5-dimethylanilino)-5,7-dihydropyrrolo[3,4-d]pyrimidin-6-yl]-1-piperidyl]-(6-ethoxy-1H-benzotriazol-5-yl)methanone]
6.00 to 6.30 | C[C@@H]1C[C@@H](N2Cc3cnc(Nc4ccc(F)cc4)nc3C2)CCN1C(=O)c1ccc2[nH]nnc2c1 [compound 143, 1H-benzotriazol-5-yl-[(2R,4S)-4-[2-(4-fluoroanilino)-5,7-dihydropyrrolo[3,4-d]pyrimidin-6-yl]-2-methyl-1-piperidyl]methanone]
7.00 to 11.00 | C[C@@H]1C[C@H](N2Cc3cnc(Nc4ccc(F)cc4)nc3C2)CCN1C(=O)c1ccc2[nH]nnc2c1 [compound 144, 1H-benzotriazol-5-yl-[(2R,4R)-4-[2-(4-fluoroanilino)-5,7-dihydropyrrolo[3,4-d]pyrimidin-6-yl]-2-methyl-1-piperidyl] methanone]
< 6.00 | COC(=O)c1cccc(C(=O)N2CC[C@@H](N3Cc4cnc(Nc5cc(C)cc(C)c5)nc4C3)C[C@H]2C)c1 [compound 145, methyl 3-[(2R,4R)-4-[2-(3,5-dimethylanilino)-5,7-dihydropyrrolo[3,4-d]pyrimidin-6-yl]-2-methyl-piperidine-1-carbonyl]benzoate]
7.00 to 11.00 | Cc1cc(C)cc(Nc2ncc3c(n2)CN([C@@H]2CCN(C(=O)c4c[nH]nn4)[C@H](C)C2)C3)c1 [compound 147, [(2R,4R)-4-[2-(3,5-dimethylanilino)-5,7-dihydropyrrolo[3,4-d]pyrimidin-6-yl]-2-methyl-1-piperidyl]-(1H-triazol-4-yl)methanone]
7.00 to 11.00 | COc1ccc(Nc2ncc3c(n2)CN([C@@H]2CCN(C(=O)c4ccc5[nH]nnc5c4)[C@H](C)C2)C3)cc1 [compound 149, 1H-benzotriazol-5-yl-[(2R,4R)-4-[2-(4-methoxyanilino)-5,7-dihydropyrrolo[3,4-d]pyrimidin-6-yl]-2-methyl-1-piperidyl] methanone]
7.00 to 11.00 | C[C@@H]1C[C@H](N2Cc3cnc(Nc4ccc(S(F)(F)(F)(F)F)cc4)nc3C2)CCN1C(=O)c1ccc2[nH]nnc2c1 [compound 150, 1H-benzotriazol-5-yl-[(2R,4R)-2-methyl-4-[2-[4-(pentafluoro-λ^6-sulfanyl)anilino]-5,7-dihydropyrrolo[3,4-d]pyrimidin-6-yl]-1-piperidyl]methanone]
7.00 to 11.00 | COc1cc(Nc2ncc3c(n2)CN([C@@H]2CCN(C(=O)c4ccc5[nH]nnc5c4)[C@H](C)C2)C3)cc(OC)c1 [compound 151, 1H-benzotriazol-5-yl-[(2R,4R)-4-[2-(3,5-dimethoxyanilino)-5,7-dihydropyrrolo[3,4-d]pyrimidin-6-yl]-2-methyl-1-piperidyl]methanone]
7.00 to 11.00 | C[C@@H]1C[C@H](N2Cc3cnc(Nc4ccc(C(F)(F)F)cc4)nc3C2)CCN1C(=O)c1ccc2[nH]nnc2c1 [compound 152, 1H-benzotriazol-5-yl-[(2R,4R)-2-methyl-4-[2-[4-(trifluoromethyl)anilino]-5,7-dihydropyrrolo[3,4-d]pyrimidin-6-yl]-1-piperidyl]methanone]
7.00 to 11.00 | Cc1cc(C)cc(Nc2ncc3c(n2)CN([C@@H]2CCN(C(=O)c4ccnc(NS(C)(=O)=O)c4)[C@H](C)C2)C3)c1 [compound 154, N-[4-[(2R,4R)-4-[2-(3,5-dimethylanilino)-5,7-dihydropyrrolo[3,4-d]pyrimidin-6-yl]-2-methyl-piperidine-1-carbonyl]-2-pyridyl]methanesulfonamide]
7.00 to 11.00 | Cc1cc(C)cc(Nc2ncc3c(n2)CN([C@@H]2CCN(C(=O)c4ccc(NS(C)(=O)=O)nc4)[C@H](C)C2)C3)c1 [compound 155, N-[5-[(2R,4R)-4-[2-(3,5-dimethylanilino)-5,7-dihydropyrrolo[3,4-d]pyrimidin-6-yl]-2-methyl-piperidine-1-carbonyl]-2-pyridyl]methanesulfon amide]
